The source of these data is a melting point compilation (Tetko et al.; mined from patent text by program, amines drawn as free bases though some values may be those of a salt).

`C[C@@H](n1ccn(-c2ccc(O)cc2)c1=O)[C@](O)(Cn1cncn1)c1ccc(F)cc1F` displayed a melting point of 93 to 103 °C.

`CSc1c(C#N)nn(-c2c(Br)cc(C(F)(F)F)cc2Br)c1N`: the melting point lay within 211 to 214 °C.

`CC(C)c1ccc(COc2ccc(CC(=O)O)cc2Cl)cc1` had a melting point of 146 to 148 °C.

`Cc1ccc(N2C(=O)C(O)=C(C(=O)c3cccc(Cl)c3)C2c2ccc(C(C)C)cc2)nn1` (stereo not drawn): the melting point was determined as 271 °C.

`Cc1noc(-c2nc(-c3c(F)cccc3F)nn2C)c1Cl` gave a melting point of 94 to 97 °C.

`CN(CC(=O)[C@H](Cc1ccccc1)NC(=O)NC1CCCCC1)C(=O)N1CCC[C@H]1C(=O)O` came in with a melting point of 75 to 110 °C.

Turning to `COC(=O)Cc1ccc(C#N)cc1C`, the melting point lay in the range of 52 to 54 °C.

In turn, `O=c1nc(-c2cccs2)sc2ccccc12` yielded a melting point of 158 °C.

`CCc1oc2ccccc2c1C(=O)NCc1ccc2c(Br)c(O)ccc2c1` came in with a melting point of 188 to 190 °C.

`C[C@@H]1Cc2ccsc2[C@H](C)N1CCNC(=O)c1ccc(NS(=O)(=O)c2ccc(Cl)cc2)cc1` (relative stereo): the melting point was in the range of 107 to 111 °C.

Compound `[N-]=[N+]=NCC(=O)Nc1ccc(S(=O)(=O)c2cccc(Cl)c2)cc1` came in with a melting point of 125 to 126 °C.

`CC(=O)O[C@H]1C[C@@H](n2cc(C)c(=O)[nH]c2=O)[C@H](O)[C@@H]1O` (racemic) gave a melting point of 58 to 61 °C.

In the case of `O=C1C=CC(O)(c2nc3ccccc3s2)C=C1`, the melting point lay within 63 to 66 °C.

In turn, `Cc1oc(-c2ccco2)nc1COc1ccc(CON=C(CCCCC(=O)O)c2ccccc2)cc1` registered a melting point of 112 to 113 °C.

Compound `COc1ccc(-c2ccc(C(C)=O)cc2Cl)c(OC)c1` came in with a melting point of 115 to 118 °C.

In the case of `CCCCc1nc(CCC)nn1Cc1ccc(-c2ccccc2-c2nnn[nH]2)cc1`, the melting point was 170 °C.

`O=C(O)c1cc2c(=O)n(C3CCCC3)c3ccccc3n2c1`: the melting point lay in the range of 215 to 216 °C.

For `COc1nc(C)cnc1NS(=O)(=O)c1ccccc1-c1ccc(CC(C)C)c(N)c1`, the melting point was 160 to 162 °C.

With `Cc1ccc(Br)cc1Cn1c(C=O)nn(C)c1=O`, the melting point was determined as 108 °C.

The compound `Cc1nc(N2CCNC2=O)sc1C(=O)NCc1ccccc1` came in with a melting point of 226 to 228 °C.

Regarding `CC/C=C\CCCCCCCCCCOc1ccc(C(=O)O)o1`, the melting point lay in the range of 89 to 90 °C.

For `CCCCOc1cc(CCS(=O)(=O)NC(=O)OCC(C)(C)C)n(Cc2ccc(Cl)cc2Cl)n1`, the melting point lay in the range of 116 to 118 °C.

`Cc1cc(NCC(C)C)c2[nH]ncc2n1` gave a melting point of 162 to 164 °C.

In turn, `Cc1ccc(S(=O)(=O)Nc2cccc(CCC(=O)c3cnc4sc(C)c(C)n34)c2)cc1` had a melting point of 180 to 181 °C.

`Cc1c(NC(=O)c2ccc(OC[C@@H]3CCCO3)cc2)ccc2c1cc(CNCC1CCOCC1)n2C` displayed a melting point of 166 to 167 °C.

With `CCCCOc1nc(-c2ccc(=O)n(C(C)C)n2)c(-c2ccccc2)nc1N`, the melting point lay within 130 to 132 °C.

In the case of `Cc1cc2c(F)c(Oc3cc(Cl)nc(N)n3)ccc2[nH]1`, the melting point was in the range of 255 to 258 °C.

In turn, `COc1cc2[nH]c(N3CCCN(C(=O)N4CCOCC4)CC3)nc(=O)c2c(C)c1OC` gave a melting point of 237 to 238 °C.

`CC(Nc1ccc2c(n1)CC1CCCCC1C2=O)c1ccccc1` (stereo not drawn) returned a melting point of 156 to 158 °C.

For `Cc1cc(CN2CCN(c3ccc(C(=O)NC4CC4)cc3)CC2)cc2c1OC(C)C(=O)N2` (stereo not drawn), the melting point lay in the range of 257 to 263 °C.

Regarding `CS(=O)(=O)OCCC1=C(CCOS(C)(=O)=O)c2ccccc2Sc2ccccc21`, the melting point was 107 to 108 °C.

`CCOCc1nc2c(N)nc3cccnc3c2n1CC(C)(C)NC(=O)C1CCCCC1` gave a melting point of 210 to 211 °C.

On to `O=C1OC(CN2CCC(O)(c3ccccc3)CC2)CN1c1ccccc1` (stereo not drawn), for which the melting point is 121 to 122 °C.

Compound `Cc1ccc(F)cc1-c1noc(CCC#Cc2ccccn2)n1` came in with a melting point of 90 to 91 °C.

For `Cc1cccc(C(=O)CC2CCCN(C)C2)c1` (stereo not drawn), the melting point fell in the range of 92 to 94 °C.

Regarding `C=C(C(=O)O)c1cc(-c2cc3c(cc2C)C(C)(C)CCC3(C)C)ccc1OCCC`, the melting point fell in the range of 125 to 126 °C.

`N#C/C=C/c1cccc(Cl)c1` returned a melting point of 26 to 28 °C.

As for `CCOc1c(C)cc2c(c1C)C1(C)Cc3ccccc3C1=N2` (stereo not drawn), the melting point was 164 °C.

In the case of `C=CCC1(O)CCC2C3CCC4=CC(=O)CCC4C3CCC21CCC` (stereo not drawn), the melting point lay in the range of 135 to 137 °C.

Consider `Cc1c2ccccc2c(-c2cc(Br)c(OC(Cc3ccccc3)C(=O)O)c(Br)c2)c2c1sc1ccccc12` (stereo not drawn), for which the melting point fell in the range of 117 to 122 °C.

In turn, `C=CCN1C(=O)C(C)N(c2ccc(OCc3ccccc3)cc2)C1=S` (stereo not drawn) registered a melting point of 88 to 90 °C.

Compound `CC(C)(C)c1cc(SCSc2cc(C(C)(C)C)c(O)c(C(C)(C)C)c2)cc(C(C)(C)C)c1O` yielded a melting point of 94 to 95 °C.

On to `CCCc1c(-c2ccncc2)[nH]c(-c2ccncc2)c1C(=O)OCC`, for which the melting point fell in the range of 209 to 211 °C.

In turn, `CCOC(=O)CN1C(=O)C(=S2CN(CC)c3ccccc32)SC1=S` (stereo not drawn) registered a melting point of 250 to 252 °C.

In turn, `CC(=O)Oc1ccc(-n2nc(C(F)(F)F)cc2-c2ccc(S(C)(=O)=O)cc2)cc1` had a melting point of 142 to 145 °C.

Compound `Cc1cccc(Cl)c1N1CCCN(C)C1=S` gave a melting point of 164 to 165 °C.

`O=C(NC(CN1CCC(=C2c3ccccc3CCc3ccccc32)CC1)C(=O)O)OCc1ccccc1` (stereo not drawn) had a melting point of 150 to 152 °C.

`Nc1ncc(-c2cccc(Cl)c2Cl)c(N)n1` registered a melting point of 208 to 211 °C.

In the case of `CNC(=O)CCC(=NOCc1ccc(OCc2nc(-c3ccccc3)oc2C)cc1)c1ccccc1`, the melting point is 141 to 142 °C.

In the case of `OC(c1cccc(Br)c1)C1c2ccccc2CCc2ccccc21` (stereo not drawn), the melting point stood at 93.9 °C.

`CC(C)(OCc1nn(Cc2ccccc2)c2ccccc12)C(=O)NNc1ccccc1` registered a melting point of 124 to 125 °C.

Compound `CCCCCCCCCCCCCCc1cc(C(=O)O)c[nH]1` showed a melting point of 83 to 85 °C.

For `CS(=O)(=O)c1ccc(Br)c([N+](=O)[O-])c1`, the melting point is 126 °C.

In turn, `CC(C)N1NN=C(c2cn(C)c3ccccc3c2=O)N1` showed a melting point of 134 to 137 °C.

The compound `CCCc1nc2c(N)nc3cc(-c4ccccc4)ccc3c2n1NC(C)C` had a melting point of 217 to 220 °C.

As to `O=C(c1ccc(Br)cc1)C1CCN(CCc2c[nH]c3ccccc23)CC1`, the melting point lay within 178 to 180 °C.

`O=CO[C@H]1CC[C@H](NC(=O)OCc2ccccc2)C1` (relative stereo): the melting point lay within 45 to 48 °C.

In the case of `C=CCc1cc(C(C)=O)c(O)cc1OCCCCC#N`, the melting point came out at 54 °C.

Regarding `N#Cc1nn(-c2c(Cl)cc(C(F)(F)F)cc2Cl)cc1C1(C(F)(F)F)CC1`, the melting point worked out at 141 °C.

With `O=C(CCl)c1ccc(-c2ccccc2Cl)cc1`, the melting point was found to be 47 °C.

Regarding `N=C(NC=Cc1ccc(N)cc1)c1ccccc1`, the melting point is 166 to 168 °C.

`O=C(NC(c1ccccc1)C(O)c1ccccc1)OCc1ccccc1` (stereo not drawn) yielded a melting point of 152 °C.

Turning to `Nc1ccc(C2CCN(C(=O)C(F)(F)F)CC2)cc1`, the melting point lay in the range of 111 to 112 °C.
